# According to patent US9930887B2, “Compound for increasing amino acid content in plant, and use thereof” (Okayama Prefecture, priority 2011, dated 2018):
# Where two headings read alike, the source gives them in different places.
# What was measured:
# Japanese mustard spinach = conditions: 28 days
# Protocol: (§1) As a cultivation temperature, two types of a low temperature condition LT (Low Temperature: light period 20° C./dark period 15° C.) and a high temperature condition HT (High Temperature: light period 25° C./dark period 20° C.) were set. […] Specifically, a single individual was put into each pot having about […], and 25 mL of each solution was provided to roots of each pot once a week. In the same way as Example 1, a leaf (or a terrestrial part) was measured as a sample in a cation mode and an anion mode of CE-TOFMS (capillary electrophoresis-time-of-flight mass spectrometry: Agilent CE-TOFMS system (Agilent technologies)). By comparing a detected peak with database on the basis of m/Z and a migration period, an amino acid was searched, identified, and quantified.
# Arabidopsis [1] = type: in vivo, Arabidopsis thaliana; conditions: 1 mM GSSG, 2 mM GSH or 3 mM NH4NO3, 25 mL per pot to roots once a week
# Arabidopsis [2] = type: in vivo, Arabidopsis thaliana
# spinach = experiment: Free amino acid content in spinach under cultivation temperature control; type: in vivo, Spinacia oleracea; conditions: 28 days
# Protocol: as §1, with “A cultivation condition of spinach, which was a vegetable of the goosefoot family (Chenopodioideae), supplied with glutathione was examined. After spinach was seeded, sprouts germinated to a similar extent were selected, were cultivated in an incubator (light period: 14 hours/dark period: 10 hours, light intensity: about 250 μE/m^2/s), and were sampled after 28 days. As” for “As”
# garland chrysanthemum = experiment: Free amino acid content in garland chrysanthemum at various glutathione concentrations; type: in vivo, Chrysanthemum coronarium; conditions: 28 days
# Protocol: An effect on amino acid contents of garland chrysanthemum which was vegetable of the composite family (Compositae), to which garland chrysanthemum glutathione having various concentrations was supplied, was examined. After garland chrysanthemum was seeded, sprouts germinated similarly were selected, were cultivated in an incubator (light period: 14 hours, 20° C./dark period: 10 hours, 15° C., light intensity: about 250 μE/m^2/s), and were sampled after 28 days. As a medium, a soil formed by placing vermiculite (Asahi industrial corporation) as a lower layer, KUREHA seedling raising soil (KUREHA CORPORATION) as a middle layer, and vermiculite (Asahi industrial corporation) as an upper layer at a ratio of 2:1:1 in lamination was used.
# In this experiment, only water (Cont.), 0.1 mM, 0.2 mM, 0.5 mM, 1 mM, 2 mM, and 5 mM of oxidized glutathione (GSSG) solutions were provided to plants.
# [3] = low temperature condition (light 20° C./dark 15° C.), 2 mM GSH
# [4] = high temperature condition (light 25° C./dark 20° C.), 1 mM GSSG
compound,measurement,setting,value
"N[C@@H](CCC(=O)N[C@@H](CS)C(=O)NCC(=O)O)C(=O)O [GSH, reduced glutathione]",GABA content relative to control,Japanese mustard spinach; [3],≥ 2 times
same,arginine content relative to control,Japanese mustard spinach; [3],≥ 2 times
same,asparagine content relative to control,Japanese mustard spinach; [3],≥ 2 times
same,aspartic acid content relative to control,Japanese mustard spinach; [3],≥ 2 times
same,glutamine content relative to control,Japanese mustard spinach; [3],≥ 2 times
same,isoleucine content relative to control,Japanese mustard spinach; [3],≥ 2 times
same,threonine content relative to control,Japanese mustard spinach; [3],≥ 2 times
same,total free amino acid content relative to control condition (only water),Arabidopsis [1]; plants after 4 weeks from seeding,about 2.9 times
same,total free amino acid content relative to control condition (only water),Arabidopsis [1]; plants after 5 weeks from seeding,about 2.4 times
same,asparagine content in a leaf,"Arabidopsis [2]; effect larger in leaf before photoirradiation (L0), 1 mM GSSG, 2 mM GSH, 3 mM NH4NO3",largely increased
same,serine content in a leaf,"Arabidopsis [2]; treatment combined with photoirradiation for 8 hours (L8, 100 μE/m^2/s), 1 mM GSSG, 2 mM GSH, 3 mM NH4NO3",remarkably increased
N[C@@H](CCC(=O)N[C@@H](CS)C(=O)NCC(=O)O)C(=O)O [glutathione],effect on amino acid contents relative to control = 1 (FIG. 8),"spinach; low temperature condition (light 20° C./dark 15° C.), observed in part of amino acids",small
same,effect of increase in amino acid content relative to control = 1 (FIG. 10),"Japanese mustard spinach; high temperature condition (light 25° C./dark 20° C.), β-alanine, asparagine, glutamine",observed in part of amino acids
oxidized glutathione [GSSG],glycine content relative to control,spinach; [4],≥ 5 times
same,homoserine content relative to control,spinach; [4],≥ 5 times
same,phenylalanine content relative to control,spinach; [4],≥ 5 times
same,tyrosine content relative to control,spinach; [4],≥ 5 times
same,"asparagine content, ratio to control = 1",garland chrysanthemum; 5 mM of GSSG,≥ 100 times
same,"glutamine content, ratio to control = 1",garland chrysanthemum; 5 mM of GSSG,≥ 100 times
same,"glycine content, ratio to control = 1",garland chrysanthemum; 5 mM of GSSG,≥ 100 times
same,"histidine content, ratio to control = 1",garland chrysanthemum; 5 mM of GSSG,≥ 100 times
same,"homoserine content, ratio to control = 1",garland chrysanthemum; 5 mM of GSSG,≥ 100 times
same,"total free amino acid content, ratio to control = 1",garland chrysanthemum; 5 mM of GSSG,24.8 times
same,total free amino acid content compared with control,"garland chrysanthemum; GSSG 0.1 mM, 25 mL per pot once a week",decreased
same,free amino acid contents compared with total free amino acid content under control condition,"garland chrysanthemum; GSSG 0.2 mM to 5 mM, 25 mL per pot once a week",increased concentration-dependently
same,asparagine content in a leaf,Arabidopsis [2]; in vivo,largely increased
same,serine content in a leaf,Arabidopsis [2]; in vivo,remarkably increased
